Like-named read-outs stand apart in the source and are kept apart here.
Legend:
Assay type in all cases: cell-based, human
MDA-MB-231 cells = experiment: MTS viability assay, MDA-MB-231 breast cancer cells
Protocol: (§1) FIG. 2A. Effects of compounds 1-11 on the viability of MDA-MB231 cells. MDA-MB-231 cells were cultured in DMEM medium supplemented with 10% FBS. Equal numbers were dispersed into 96-well plates. After 24 h, the cells were incubated with compounds 1-11 (0-30 μM) for 48 h. At the end of the incubation, MTS reagent (20% vol/vol) was added and the plates were incubated for 1-4 h. The OD490 was read with a plate reader. Wells with media but no cells were treated in similar fashion and the values utilized as blank. The results represent the mean±standard deviation of 6 independent determinations.
as §1, with “2K.” for “2A.”, “1, 69-72” for “1-11”, “MDA-MB-231” for “MDA-MB231”, “1, 69-72” for “1-11 (0-30 μM)”
(§2) The cell lines were cultured from frozen stocks originally obtained from ATCC. MDA-MB-231, JIMT-1, DU145, U81, U251 cells were grown in DMEM medium. BT474, A2780s, A2780cp cells were grown in DMEM/F12 medium supplemented with 10% FBS. MiaPaCa2 was cultured in DMEM supplemented with 10% FBS and 2.5% horse serum. PC3 cells were cultured in F12K medium supplemented with 10% FBS. All the media were supplemented with penicillin/streptomycin.
(§3) The effects of the GAELs on the viability of the various epithelial cancer cell lines was determined as previously described. Briefly, equal numbers of the cells were dispersed into 96-well plates. After 24 h, the cells were incubated with the compounds (0-30 μM) for 48 h. At the end of the incubation, MTS reagent (20% vol/vol) was added and the plates were incubated for 1-4 h. The OD490 was read with a plate reader. Wells with media but no cells were treated in similar fashion and the values utilized as blank. The results represent the mean±standard deviation of 6 independent determinations.

MiaPaCa2 cells = experiment: MTS viability assay, MiaPaCa2 pancreas cancer cells
Protocol: as §1, with “2F.” for “2A.”, “MiaPaCa2” for “MDA-MB231”, “MiaPaCa2” for “MDA-MB-231”, “FBS and 2.5% horse serum.” for “FBS.”
as §1, with “2I.” for “2A.”, “1, 69-72” for “1-11”, “MiaPaCa2” for “MDA-MB231”, “MiaPaCa2” for “MDA-MB-231”, “FBS and 2.5% horse serum.” for “FBS.”, “1, 69-72” for “1-11 (0-30 μM)”
as §2, §3

DU145 cells = experiment: MTS viability assay, DU145 prostate cancer cells
Protocol: as §1, with “2D.” for “2A.”, “DU145” for “MDA-MB231”, “DU145” for “MDA-MB-231”
as §1, with “2H. Effect” for “2A. Effects”, “1, 69-72” for “1-11”, “DU145” for “MDA-MB231”, “DU145” for “MDA-MB-231”, “1, 69-72” for “1-11 (0-30 μM)”
as §2, §3

BT-474 cells = experiment: MTS viability assay, BT-474 breast cancer cells; conditions: 48 h, MTS
Protocol: as §1, with “2C.” for “2A.”, “BT-474” for “MDA-MB231”, “BT-474” for “MDA-MB-231”, “DMEM/F12” for “DMEM”
as §2, §3

PC3 cells = experiment: MTS viability assay, PC3 prostate cancer cells; conditions: 48 h, MTS
Protocol: as §1, with “2E.” for “2A.”, “PC3” for “MDA-MB231”, “PC3” for “MDA-MB-231”, “F12K” for “DMEM”
as §2, §3

[1] = tested on: BT-474, JIMT-1, MDA-MB-231 (breast), DU145, PC3 (prostate), MiaPaCa2 (pancreas); experiment: MTS viability, panel of epithelial cancer cell lines (ranges over the cell lines)
Protocol: To determine the effect of compounds 1-10 on the viability of the epithelial cancer cell lines, exponentially growing cells, BT-474, JIMT-1, MDA-MB-231 (breast), DU145, PC3 (prostate), MiaPaCa2 (pancreas) were incubated with varying concentrations of 1-8 (0-30 μM) for 48 h followed by viability assays with the MTS reagent.
as §3

JIMT-1 cells = experiment: MTS viability assay, JIMT-1 breast cancer cells
Protocol: as §1, with “2B.” for “2A.”, “JIMT-1” for “MDA-MB231”, “JIMT-1” for “MDA-MB-231”
as §1, with “2J.” for “2A.”, “1, 69-72” for “1-11”, “JIMT-1” for “MDA-MB231”, “JIMT-1” for “MDA-MB-231”, “1, 69-72” for “1-11 (0-30 μM)”
as §2, §3

[2] = Table 1A, 48 h, read-out: CC50 values MD 231
[3] = Table 1B, 48 h, read-out: CC90 values MD 231
[4] = Table 1A, 48 h, read-out: CC50 values MiaPaCa2
[5] = Table 1B, 48 h, read-out: CC90 values MiaPaCa2
[6] = Table 1A, 48 h, read-out: CC50 values DU 145
[7] = Table 1B, 48 h, read-out: CC90 values DU 145
[8] = Table 1B, read-out: CC90 values BT474
[9] = Table 1A, read-out: CC50 values PC3
[10] = Table 1B, read-out: CC90 values PC3
[11] = Table 1A, 48 h, read-out: CC50 values JIMT1
[12] = Table 1B, 48 h, read-out: CC90 values JIMT1
[13] = Table 6, 48 h, read-out: MB-MDA-231 CC50
[14] = Table 6, 48 h, read-out: MB-MDA-231 CC90
[15] = Table 6, 48 h, read-out: MiaPaCa2 CC50
[16] = Table 6, 48 h, read-out: MiaPaCa2 CC90
[17] = Table 6, 48 h, read-out: DU145 CC50
[18] = Table 6, 48 h, read-out: DU145 CC90
[19] = Table 6, 48 h, read-out: JIMT1 CC50
[20] = Table 6, 48 h, read-out: JIMT1 CC90

## CCCCCCCCCCCCCCCCOC[C@H](CO[C@@H]1O[C@H](CN)[C@@H](O)[C@H](O)[C@H]1N)OC [Compound 2, 1-O-Hexadecyl-2-O-methyl-3-O-(-2′,6′-diamino-2′,6′-dideoxy-β-D-glucopyranosyl)-sn-glycerol]
MDA-MB-231 cells; [2]
  CC50: 5.5 µM
MDA-MB-231 cells; [3]
  CC90: 7 µM
MiaPaCa2 cells; [4]
  CC50: 7 µM
MiaPaCa2 cells; [5]
  CC90: 12 µM
DU145 cells; [6]
  CC50: 6 µM
DU145 cells; [7]
  CC90: 8.5 µM
BT-474 cells; [8]
  CC90: 14 µM
PC3 cells; [9]
  CC50: 11 µM
PC3 cells; [10]
  CC90: 14 µM
[1]; range over the cell lines tested, 48 h, read-out: CC50 values, range depending on the cell line
  CC50: 4.2 to 11.5 µM
JIMT-1 cells; [11]
  CC50: 4.2 µM
JIMT-1 cells; [12]
  CC90: 6.5 µM

## CCCCCCCCCCCCCCCCOC[C@H](COC1O[C@H](CN)[C@@H](O)[C@H](O)[C@H]1NCCCCCCCCCCCCN)OC (some centres unmarked) [Compound 75, 1-O-Hexadecyl-2-O-methyl-3-O-[2′-N-(12-aminododecyl)-2′,6′-diamino-2′,6′-dideoxy-glucopyranoside]-sn-glycerol]
MDA-MB-231 cells; [13]
  CC50: 5.5 µM
MDA-MB-231 cells; [14]
  CC90: 9.5 µM
MiaPaCa2 cells; [15]
  CC50: 8.5 µM
MiaPaCa2 cells; [16]
  CC90: 12 µM
DU145 cells; [17]
  CC50: 7.5 µM
DU145 cells; [18]
  CC90: 9.5 µM
BT-474 cells; Table 6, read-out: BT474 CC50
  CC50: 13.5 µM
BT-474 cells; Table 6, read-out: BT474 CC90
  CC90: 16.5 µM
PC3 cells; Table 6, read-out: PC3 CC50
  CC50: 8.5 µM
PC3 cells; Table 6, read-out: PC3 CC90
  CC90: 11.5 µM
[1]; tricationic GAELs, FIG. 2O, Table 6
  cytotoxicity against all cell lines examined: cytotoxic
JIMT-1 cells; [19]
  CC50: 8 µM
JIMT-1 cells; [20]
  CC90: 9.5 µM

## CCCCCCCCCCCCCCCCOCC(CO[C@@H]1O[C@H](CO)[C@@H](O)[C@H](O)[C@H]1N)NC(=O)CCCCCCCCCCCCCCC (stereo partly drawn) [Compound 9, 1-O-Hexadecyloxy-2S/R—N-hexadecylacyl-3-(-2′-amino-2′-deoxy-β-D-glucopyranosyl)-glycerol]
MDA-MB-231 cells; [2]
  CC50: > 30 µM
MDA-MB-231 cells; [3]
  CC90: > 30 µM
MiaPaCa2 cells; [4]
  CC50: > 30 µM
MiaPaCa2 cells; [5]
  CC90: > 30 µM
DU145 cells; [6]
  CC50: > 30 µM
DU145 cells; [7]
  CC90: > 30 µM
BT-474 cells; Table 1A, read-out: CC50 values BT474
  CC50: > 30 µM
BT-474 cells; [8]
  CC90: > 30 µM
PC3 cells; [9]
  CC50: > 30 µM
PC3 cells; [10]
  CC90: > 30 µM
[1]; 30 μM, all the cell lines tested
  activity at the highest concentration tested: not active
JIMT-1 cells; [11]
  CC50: > 30 µM
JIMT-1 cells; [12]
  CC90: > 30 µM

## CCCCCCCCCCCCCCCCOC[C@H](COC1O[C@H](CN)[C@@H](O)[C@H](O)[C@H]1NCCCN)OC (some centres unmarked) [Compound 76, 1-O-Hexadecyl-2-O-methyl-3-O-[2′-N-(3-aminopropyl)-2′,6′-diamino-2′,6′-dideoxy-glucopyranoside]-sn-glycerol]
MDA-MB-231 cells; [13]
  CC50: 17.5 µM
MDA-MB-231 cells; [14]
  CC90: > 20 µM
MiaPaCa2 cells; [15]
  CC50: 14.5 µM
MiaPaCa2 cells; [16]
  CC90: > 20 µM
DU145 cells; [17]
  CC50: 18.5 µM
DU145 cells; [18]
  CC90: > 20 µM
BT-474 cells; Table 6, read-out: BT474 CC50
  CC50: > 20 µM
BT-474 cells; Table 6, read-out: BT474 CC90
  CC90: > 20 µM
PC3 cells; Table 6, read-out: PC3 CC50
  CC50: 14.5 µM
PC3 cells; Table 6, read-out: PC3 CC90
  CC90: > 20 µM
JIMT-1 cells; [19]
  CC50: 12.5 µM
JIMT-1 cells; [20]
  CC90: 16.5 µM

Source: patent US10806746B2, “Di- and tri-cationic glycosylated antitumor ether lipids, L-gucosylated gaels and rhamnose-linked gaels as cytotoxic agents against epithelial cancer cells and cancer stem cells” (The University of Manitoba, priority 2014, dated 2020)
